{"source": "patent US12466839B2", "about": "“Allosteric AKT inhibitors for use in the treatment of Hereditary Hemorrhagic Telangiectasia” (VADERIS THERAPEUTICS AG, priority 2020, dated 2025)", "key": {"full length AKT1": {"biological_target": "full length AKT1 (Homo sapiens, UniProt P31749)", "assay": "Biochemical kinase assay"}, "PDK1": {"biological_target": "PDK1 (Homo sapiens, UniProt O15530)", "sequence (O15530 whole entry)": "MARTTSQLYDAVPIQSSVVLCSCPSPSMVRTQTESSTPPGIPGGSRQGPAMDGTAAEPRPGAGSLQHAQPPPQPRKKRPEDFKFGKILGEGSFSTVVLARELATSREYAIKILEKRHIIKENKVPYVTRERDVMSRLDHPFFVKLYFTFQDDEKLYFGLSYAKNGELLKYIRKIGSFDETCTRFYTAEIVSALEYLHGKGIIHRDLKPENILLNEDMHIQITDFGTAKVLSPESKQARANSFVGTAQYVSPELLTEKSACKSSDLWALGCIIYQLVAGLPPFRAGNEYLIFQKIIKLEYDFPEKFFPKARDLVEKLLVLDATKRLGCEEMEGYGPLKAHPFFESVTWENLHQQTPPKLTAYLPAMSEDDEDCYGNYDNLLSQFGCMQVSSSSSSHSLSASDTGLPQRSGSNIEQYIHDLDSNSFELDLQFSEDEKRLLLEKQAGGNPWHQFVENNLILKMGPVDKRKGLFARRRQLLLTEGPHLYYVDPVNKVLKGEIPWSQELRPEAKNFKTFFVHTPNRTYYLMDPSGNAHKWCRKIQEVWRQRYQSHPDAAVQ", "assay": "Panel of 450 kinases and 10-point titration curve", "format": "biochemical"}, "Kv1.5": {"biological_target": "Kv1.5 (Homo sapiens, UniProt P22460)", "assay": "Cardiac ion channel profile", "format": "cell-based"}, "minK (Homo sapiens)": {"tested_on": "minK (Homo sapiens)", "assay": "Cardiac ion channel profile", "format": "cell-based"}, "[1]": {"tested_on": "angiogenesis in C57Bl/6J mice retinas", "assay": "Neonatal retinal angiogenesis model in wild-type mice", "format": "in vivo, mouse (C57Bl/6J)", "conditions": "2.5 mg·kg−1", "description": "For the retinal vascular network, quantification of the number of AV shunts per mouse was done manually. […] A custom own-lab made macro allowed automatic processing of the images, using the same processing and quantification parameters. Briefly, the brightness of the images was enhanced by modifying the pixel extreme values, which depends on the specific image histogram content. A Gaussian filter was applied to reduce the intensity in homogeneities. The filter order depended on the image resolution. Next, the threshold step was computed, based on a global threshold technique such as Otsu's method or Li's method, resulting in binary image. A median filter was then applied to eliminate potential local irregularities, which could cause false branching point detection. From the binary images, the vascular density was quantified (calculated as the ratio of pixels associated with the vessels divided by the total number of pixels in the image). For the other parameters, a skeleton of the images was first computed using ImageJ, then the total vascular length was quantified using the Measure Skeleton Length plug-in from ImageJ. The number of branch points was extracted from the Analyze Skeleton plug-in of ImageJ. All results were transferred to Microsoft Office Excel software and automatically rearranged using a lab custom-made program. As all images generated at each step of the processing were saved, a visual control was made to ensure that there were no aberrant results.\nStatistical analysis was performed with Prism 7 software (GraphPad). For most of the experiments, 1-way ANOVA was used for multiple comparisons. Results are expressed as mean±SEM. For post hoc pairwise, the Dunnett's test was used. A value of *P<0.05, **P<0.01, ***P<0.001 or ****P<0.0001 denotes statistical significance. An in-group variation of around 15% in parameters related to blood vessel architecture changes has been previously observed by the inventors, therefore a difference between controls and mutant mice of around 20-30% was anticipated. It was therefore expected that a group of 8 mice per condition would reveal statistical differences.\nEyes were fixed in 4% paraformaldehyde (PFA) in PBS at room temperature for 10 min, retinas were dissected, post-fixed in 4% PFA in PBS at 4° C. overnight then processed for immunostaining. Retinas were permeabilized in PBS, 1% BSA and 0.5% Triton X-100 at 4° C. overnight, rinsed in PBS, washed twice in PBlec (PBS, pH 6.8, 1% Triton-X-100, 0.1 mM CaCl2, 0.1 mM MgCl2, 0.1 mM MnCl2), and then incubated in biotinylated Griffonia simplicifolia lectin (isolectin B4) (B-1205, Vector Laboratories, 1:50) in PBlec at 4° C. overnight. After 5 washes in PBS, samples were incubated with streptavidin Cy-3 (PA43001, Sigma-Aldrich, 1:100) and with a-SMA (clone 1A4) (F3777, Sigma-Aldrich) conjugated with FITC diluted in PBS, 0.5% BSA, and 0.25% X-100 at 4° C. for 2 h. After washing, flat whole-mount retinas were mounted in DAKO medium (S3023, Dako). Complete high-resolution 3-dimensional rendering of whole-mount retinas was acquired using Laser Scanning Microscope SP5 or SP8 (Leica)."}, "BLT1": {"biological_target": "T1, BLT1 (Homo sapiens, UniProt Q15722)", "T1 construct": "purchased Millipore", "T1 sequence (Q15722 whole entry)": "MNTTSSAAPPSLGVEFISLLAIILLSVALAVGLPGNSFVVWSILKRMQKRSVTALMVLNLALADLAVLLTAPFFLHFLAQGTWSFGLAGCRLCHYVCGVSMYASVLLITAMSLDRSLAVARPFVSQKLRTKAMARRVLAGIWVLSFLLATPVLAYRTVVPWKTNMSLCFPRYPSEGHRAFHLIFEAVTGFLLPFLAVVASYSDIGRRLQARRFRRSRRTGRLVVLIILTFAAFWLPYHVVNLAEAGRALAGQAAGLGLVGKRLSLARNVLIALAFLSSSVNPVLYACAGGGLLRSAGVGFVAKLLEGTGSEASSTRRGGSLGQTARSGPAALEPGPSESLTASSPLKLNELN", "assay": "Millipore Drug Discovery Safety and Liability Panel", "format": "cell-based"}, "CysLT1": {"biological_target": "T2, CysLT1 (Homo sapiens, UniProt Q9Y271)", "T2 construct": "purchased Millipore", "T2 sequence (Q9Y271 whole entry)": "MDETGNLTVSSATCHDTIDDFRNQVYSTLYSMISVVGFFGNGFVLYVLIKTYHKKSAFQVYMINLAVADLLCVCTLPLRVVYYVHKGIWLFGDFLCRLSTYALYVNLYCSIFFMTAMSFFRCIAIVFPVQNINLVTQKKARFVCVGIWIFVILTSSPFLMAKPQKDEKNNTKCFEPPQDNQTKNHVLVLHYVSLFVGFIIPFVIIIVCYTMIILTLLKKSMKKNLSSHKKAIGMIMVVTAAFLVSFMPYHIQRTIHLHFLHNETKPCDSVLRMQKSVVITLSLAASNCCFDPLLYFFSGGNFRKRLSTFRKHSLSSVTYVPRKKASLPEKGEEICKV", "assay": "Millipore Drug Discovery Safety and Liability Panel", "format": "cell-based"}, "GnRH": {"biological_target": "T3, GnRH (Homo sapiens, UniProt P30968)", "T3 construct": "purchased Millipore", "T3 sequence (P30968 whole entry)": "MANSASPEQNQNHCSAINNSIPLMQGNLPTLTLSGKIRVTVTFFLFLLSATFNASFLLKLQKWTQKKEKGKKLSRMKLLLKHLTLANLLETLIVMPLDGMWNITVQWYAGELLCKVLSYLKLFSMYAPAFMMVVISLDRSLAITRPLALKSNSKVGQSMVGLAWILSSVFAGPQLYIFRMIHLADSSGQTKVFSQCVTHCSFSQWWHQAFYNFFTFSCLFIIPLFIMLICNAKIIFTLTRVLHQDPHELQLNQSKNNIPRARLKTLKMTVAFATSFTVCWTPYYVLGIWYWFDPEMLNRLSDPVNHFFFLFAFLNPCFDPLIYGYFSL", "assay": "Millipore Drug Discovery Safety and Liability Panel", "format": "cell-based"}, "M2": {"biological_target": "T4, M2 (Homo sapiens, UniProt P08172)", "T4 construct": "purchased Millipore", "assay": "Millipore Drug Discovery Safety and Liability Panel", "format": "cell-based"}, "M3": {"biological_target": "T5, M3 (Homo sapiens, UniProt P20309)", "T5 construct": "purchased Millipore", "T5 sequence (P20309 whole entry)": "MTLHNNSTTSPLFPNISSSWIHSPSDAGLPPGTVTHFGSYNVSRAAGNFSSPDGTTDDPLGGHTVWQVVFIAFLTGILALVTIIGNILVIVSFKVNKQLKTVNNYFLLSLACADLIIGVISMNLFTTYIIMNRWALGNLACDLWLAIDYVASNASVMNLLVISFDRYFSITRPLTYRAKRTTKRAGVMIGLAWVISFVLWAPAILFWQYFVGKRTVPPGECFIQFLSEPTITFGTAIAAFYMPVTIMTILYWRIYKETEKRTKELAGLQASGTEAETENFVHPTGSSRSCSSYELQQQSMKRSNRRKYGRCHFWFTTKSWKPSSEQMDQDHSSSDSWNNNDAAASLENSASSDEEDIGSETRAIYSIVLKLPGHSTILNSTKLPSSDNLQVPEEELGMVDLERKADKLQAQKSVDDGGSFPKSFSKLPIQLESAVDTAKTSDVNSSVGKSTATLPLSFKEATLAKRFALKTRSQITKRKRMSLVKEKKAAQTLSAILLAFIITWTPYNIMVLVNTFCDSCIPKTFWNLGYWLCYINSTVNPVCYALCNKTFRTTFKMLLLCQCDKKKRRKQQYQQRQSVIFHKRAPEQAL", "assay": "Millipore Drug Discovery Safety and Liability Panel", "format": "cell-based"}, "MC5": {"biological_target": "T6, MC5 (Homo sapiens, UniProt P33032)", "T6 construct": "purchased Millipore", "T6 sequence (P33032 whole entry)": "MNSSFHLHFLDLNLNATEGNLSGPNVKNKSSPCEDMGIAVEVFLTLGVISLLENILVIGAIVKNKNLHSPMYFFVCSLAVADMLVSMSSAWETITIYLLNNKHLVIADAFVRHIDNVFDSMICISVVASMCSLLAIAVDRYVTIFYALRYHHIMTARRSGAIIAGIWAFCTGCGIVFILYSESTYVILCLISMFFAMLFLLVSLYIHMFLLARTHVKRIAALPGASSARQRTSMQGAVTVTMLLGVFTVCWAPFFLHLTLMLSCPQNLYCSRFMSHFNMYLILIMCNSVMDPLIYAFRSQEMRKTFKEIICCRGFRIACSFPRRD", "assay": "Millipore Drug Discovery Safety and Liability Panel", "format": "cell-based"}, "OPRD1": {"biological_target": "T7, OPRD1 (Homo sapiens, UniProt P41143)", "T7 construct": "Millipore", "T7 sequence (P41143 whole entry, species assumed)": "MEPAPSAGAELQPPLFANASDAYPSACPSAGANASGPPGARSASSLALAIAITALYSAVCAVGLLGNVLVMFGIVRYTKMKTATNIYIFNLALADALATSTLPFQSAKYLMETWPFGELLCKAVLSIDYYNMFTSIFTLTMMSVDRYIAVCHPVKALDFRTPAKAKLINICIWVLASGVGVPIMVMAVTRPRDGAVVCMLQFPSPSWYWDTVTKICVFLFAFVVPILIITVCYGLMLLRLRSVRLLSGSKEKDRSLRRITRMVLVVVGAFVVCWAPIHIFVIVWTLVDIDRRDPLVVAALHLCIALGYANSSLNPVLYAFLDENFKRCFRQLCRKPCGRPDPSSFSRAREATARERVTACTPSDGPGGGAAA", "assay": "Millipore Drug Discovery Safety and Liability Panel", "format": "cell-based"}, "OPRM1": {"biological_target": "T8, OPRM1 (Homo sapiens, UniProt P35372)", "T8 construct": "Millipore", "T8 sequence (P35372 whole entry, species assumed)": "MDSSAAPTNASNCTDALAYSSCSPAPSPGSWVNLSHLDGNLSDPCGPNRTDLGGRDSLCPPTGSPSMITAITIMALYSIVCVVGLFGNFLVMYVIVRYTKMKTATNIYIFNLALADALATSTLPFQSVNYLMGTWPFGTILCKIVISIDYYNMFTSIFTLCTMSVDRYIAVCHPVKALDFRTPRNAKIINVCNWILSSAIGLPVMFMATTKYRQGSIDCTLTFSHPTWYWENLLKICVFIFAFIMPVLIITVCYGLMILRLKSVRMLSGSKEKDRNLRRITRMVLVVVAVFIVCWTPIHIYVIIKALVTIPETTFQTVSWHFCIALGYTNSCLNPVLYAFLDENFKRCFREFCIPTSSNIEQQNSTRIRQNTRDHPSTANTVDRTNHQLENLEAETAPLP", "assay": "Millipore Drug Discovery Safety and Liability Panel", "format": "cell-based"}, "OX1": {"biological_target": "T9, OX1 (Homo sapiens, UniProt O43613)", "T9 construct": "Millipore", "T9 sequence (O43613 whole entry)": "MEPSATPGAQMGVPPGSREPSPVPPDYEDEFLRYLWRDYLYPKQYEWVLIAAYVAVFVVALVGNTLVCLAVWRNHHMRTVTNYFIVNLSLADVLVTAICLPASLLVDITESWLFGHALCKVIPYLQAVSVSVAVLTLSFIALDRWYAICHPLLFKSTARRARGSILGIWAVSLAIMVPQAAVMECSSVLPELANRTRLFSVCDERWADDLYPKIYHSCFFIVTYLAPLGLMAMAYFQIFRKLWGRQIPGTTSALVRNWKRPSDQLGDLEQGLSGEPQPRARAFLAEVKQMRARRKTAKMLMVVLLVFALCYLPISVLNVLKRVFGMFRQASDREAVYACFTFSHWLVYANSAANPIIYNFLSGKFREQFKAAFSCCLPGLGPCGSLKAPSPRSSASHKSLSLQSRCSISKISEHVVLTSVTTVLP", "assay": "Millipore Drug Discovery Safety and Liability Panel", "format": "cell-based"}, "Thrombin-activated PARs": {"tested_on": "Thrombin-activated PARs", "assay": "Millipore Drug Discovery Safety and Liability Panel", "format": "cell-based", "conditions": "10 μM"}, "V1A": {"biological_target": "T10, V1A (Homo sapiens, UniProt P37288)", "T10 construct": "Millipore", "T10 sequence (P37288 whole entry)": "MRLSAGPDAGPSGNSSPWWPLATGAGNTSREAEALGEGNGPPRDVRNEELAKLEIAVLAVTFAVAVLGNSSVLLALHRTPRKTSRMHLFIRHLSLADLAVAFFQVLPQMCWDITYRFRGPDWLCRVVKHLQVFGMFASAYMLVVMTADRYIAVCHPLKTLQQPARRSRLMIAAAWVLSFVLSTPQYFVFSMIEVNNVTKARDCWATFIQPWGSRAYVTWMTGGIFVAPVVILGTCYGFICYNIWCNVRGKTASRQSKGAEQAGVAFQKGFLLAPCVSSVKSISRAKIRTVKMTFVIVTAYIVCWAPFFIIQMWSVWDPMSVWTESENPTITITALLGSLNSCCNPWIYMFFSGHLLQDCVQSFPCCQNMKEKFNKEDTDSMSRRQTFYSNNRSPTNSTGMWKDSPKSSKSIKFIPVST", "assay": "Millipore Drug Discovery Safety and Liability Panel", "format": "cell-based"}, "VPAC1": {"biological_target": "T11, VPAC1 (Homo sapiens, UniProt P32241)", "T11 construct": "Millipore", "T11 sequence (P32241 31-457)": "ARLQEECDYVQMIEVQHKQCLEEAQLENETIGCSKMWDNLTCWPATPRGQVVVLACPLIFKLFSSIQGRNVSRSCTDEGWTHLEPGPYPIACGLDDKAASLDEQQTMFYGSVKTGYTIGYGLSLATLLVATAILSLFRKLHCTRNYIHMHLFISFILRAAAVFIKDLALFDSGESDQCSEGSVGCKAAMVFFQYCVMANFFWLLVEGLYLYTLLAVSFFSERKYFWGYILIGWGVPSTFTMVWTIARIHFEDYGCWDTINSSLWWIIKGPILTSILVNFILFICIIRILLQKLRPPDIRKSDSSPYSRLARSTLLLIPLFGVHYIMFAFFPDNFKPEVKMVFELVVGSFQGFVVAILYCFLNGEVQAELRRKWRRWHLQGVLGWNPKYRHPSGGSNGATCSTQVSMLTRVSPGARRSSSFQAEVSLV", "assay": "Millipore Drug Discovery Safety and Liability Panel", "format": "cell-based"}, "VPAC2": {"biological_target": "T12, VPAC2 (Homo sapiens, UniProt P41587)", "T12 construct": "Millipore", "T12 sequence (P41587 24-438)": "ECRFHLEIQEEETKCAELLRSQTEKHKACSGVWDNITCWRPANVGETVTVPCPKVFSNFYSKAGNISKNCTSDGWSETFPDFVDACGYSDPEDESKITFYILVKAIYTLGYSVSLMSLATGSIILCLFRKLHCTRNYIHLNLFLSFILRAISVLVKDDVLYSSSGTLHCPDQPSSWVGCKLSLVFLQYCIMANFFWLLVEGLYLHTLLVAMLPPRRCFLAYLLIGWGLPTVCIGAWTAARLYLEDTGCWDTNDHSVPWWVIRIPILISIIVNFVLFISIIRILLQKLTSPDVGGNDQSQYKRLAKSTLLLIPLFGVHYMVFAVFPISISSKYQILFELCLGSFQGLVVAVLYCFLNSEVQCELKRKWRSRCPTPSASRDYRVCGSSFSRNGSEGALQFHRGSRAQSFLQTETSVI", "assay": "Millipore Drug Discovery Safety and Liability Panel", "format": "cell-based"}, "[2]": {"conditions": "read-out: ANTAGONIST mean % inhibition"}}}
{"smiles": "CCN1C(=O)COc2nc(-c3ccc(C4(N)CC(O)C4)cc3)c(-c3ccccc3)cc21.O=C(O)C(O)C(O)C(=O)O", "note": "[VAD044, 6-(4-(1-amino-3-hydroxycyclobutyl)phenyl)-1-ethyl-7-phenyl-1H-pyrido[2,3-b][1,4]oxazin-2(3H)-one L-tartrate]", "values": [{"measurement": "IC50", "setting": "full length AKT1", "value": 0.125, "unit": "µM"}, {"measurement": "inhibition at 10 µM", "setting": "PDK1; 10 μM", "value": 77, "unit": "%"}, {"measurement": "IC50", "setting": "PDK1; 10-point titration curve", "value": "> 10", "unit": "µM"}, {"measurement": "inhibition at 10 µM", "setting": "Kv1.5", "value": "< 25", "unit": "%"}, {"measurement": "inhibition at 10 µM", "setting": "minK (Homo sapiens)", "value": "< 25", "unit": "%"}, {"measurement": "impact on normal angiogenesis", "setting": "[1]", "value": "little or no impact on normal angiogenesis"}, {"measurement": "activation at 10 µM", "setting": "BLT1; BLT1, 10 μM, read-out: AGONIST mean % increase in activity", "value": -0.2, "unit": "%"}, {"measurement": "inhibition at 10 µM", "setting": "BLT1; [2]", "value": 5.6, "unit": "%"}, {"measurement": "activation at 10 µM", "setting": "CysLT1; CysLT1, 10 μM, read-out: AGONIST mean % increase in activity", "value": -0.8, "unit": "%"}, {"measurement": "inhibition at 10 µM", "setting": "CysLT1; [2]", "value": 1.5, "unit": "%"}, {"measurement": "activation at 10 µM", "setting": "GnRH; GnRH, 10 μM, read-out: AGONIST mean % increase in activity", "value": -0.6, "unit": "%"}, {"measurement": "inhibition at 10 µM", "setting": "GnRH; [2]", "value": 4, "unit": "%"}, {"measurement": "activation at 10 µM", "setting": "M2; read-out: AGONIST mean % increase in activity", "value": 0, "unit": "%"}, {"measurement": "inhibition at 10 µM", "setting": "M2; [2]", "value": 20.6, "unit": "%"}, {"measurement": "activation at 10 µM", "setting": "M3; M3, 10 μM, read-out: AGONIST mean % increase in activity", "value": -0.5, "unit": "%"}, {"measurement": "inhibition at 10 µM", "setting": "M3; [2]", "value": 5.3, "unit": "%"}, {"measurement": "activation at 10 µM", "setting": "MC5; MC5, 10 μM, read-out: AGONIST mean % increase in activity", "value": -0.2, "unit": "%"}, {"measurement": "inhibition at 10 µM", "setting": "MC5; [2]", "value": 8.4, "unit": "%"}, {"measurement": "activation at 10 µM", "setting": "OPRD1; OPRD1, 10 μM, read-out: AGONIST mean % increase in activity", "value": -0.9, "unit": "%"}, {"measurement": "inhibition at 10 µM", "setting": "OPRD1; [2]", "value": 2.8, "unit": "%"}, {"measurement": "inhibition at 10 µM", "setting": "OPRM1; OPRM1, read-out: ANTAGONIST mean % inhibition", "value": 2.4, "unit": "%"}, {"measurement": "activation at 10 µM", "setting": "OPRM1; OPRM1, 10 μM, read-out: AGONIST mean % increase in activity", "value": -2, "unit": "%"}, {"measurement": "activation at 10 µM", "setting": "OX1; OX1, 10 μM, read-out: AGONIST mean % increase in activity", "value": -1.8, "unit": "%"}, {"measurement": "inhibition at 10 µM", "setting": "OX1; [2]", "value": -3.8, "unit": "%"}, {"measurement": "AGONIST mean % increase in activity", "setting": "Thrombin-activated PARs", "value": 0, "unit": "%"}, {"measurement": "ANTAGONIST mean % inhibition", "setting": "Thrombin-activated PARs", "value": "−1.2", "unit": "%"}, {"measurement": "activation at 10 µM", "setting": "V1A; V1A, 10 μM, read-out: AGONIST mean % increase in activity", "value": -1.5, "unit": "%"}, {"measurement": "inhibition at 10 µM", "setting": "V1A; [2]", "value": 2.5, "unit": "%"}, {"measurement": "activation at 10 µM", "setting": "VPAC1; VPAC1, 10 μM, read-out: AGONIST mean % increase in activity", "value": -0.7, "unit": "%"}, {"measurement": "inhibition at 10 µM", "setting": "VPAC1; [2]", "value": 8.5, "unit": "%"}, {"measurement": "activation at 10 µM", "setting": "VPAC2; VPAC2, 10 μM, read-out: AGONIST mean % increase in activity", "value": 0, "unit": "%"}, {"measurement": "inhibition at 10 µM", "setting": "VPAC2; [2]", "value": 6.2, "unit": "%"}]}
